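In this assay, cells in 96-well plates receive the compound at five concentrations for 48 hours. Endpoints are linearly interpolated between the surrounding concentrations. GI50 = concentration required for 50% inhibition of growth.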 The source made the active and inactive calls. No stated cut-off is given here; in the data, active = GI50 up to about 1.1 µM and inactive = higher.
Tests used:
Assay in all cases: NCI tumour cell line growth inhibition, 48 h
SW-620 = test system: SW-620
NCI-H522 = test system: NCI-H522
MOLT-4 = test system: MOLT-4
SNB-78 = test system: SNB-78
SNB-75 = test system: SNB-75
COLO 205 = test system: COLO 205
HL-60 = test system: HL-60
LXFL 529 = test system: LXFL 529
SK-MEL-28 = test system: SK-MEL-28
HCC 2998 = test system: HCC 2998
OVCAR-3 = test system: OVCAR-3
LOX IMVI = test system: LOX IMVI
M14 = test system: M14
NCI-H226 = test system: NCI-H226
TK-10 = test system: TK-10
SR = test system: SR
SN12C = test system: SN12C
M19-MEL = test system: M19-MEL
EKVX = test system: EKVX
NCI-H23 = test system: NCI-H23
OVCAR-8 = test system: OVCAR-8
UACC-257 = test system: UACC-257
A498 = test system: A498
IGROV-1 = test system: IGROV-1
SK-MEL-2 = test system: SK-MEL-2
KM12 = test system: KM12
HCT-15 = test system: HCT-15
HOP-18 = test system: HOP-18
XF498 = test system: XF498
SF-268 = test system: SF-268
U-251 = test system: U-251
SK-MEL-5 = test system: SK-MEL-5
UACC-62 = test system: UACC-62
RXF 631 = test system: RXF 631
CCRF-CEM = test system: CCRF-CEM
NCI-H460 = test system: NCI-H460
786-0 = test system: 786-0
DMS-114 = test system: DMS-114
RXF 393 = test system: RXF 393
DLD-1 = test system: DLD-1
SF-295 = test system: SF-295
OVCAR-5 = test system: OVCAR-5
HCT-116 = test system: HCT-116
CAKI-1 = test system: CAKI-1
SK-OV-3 = test system: SK-OV-3
K562 = test system: K562
HOP-62 = test system: HOP-62
RPMI-8226 = test system: RPMI-8226
HT-29 = test system: HT-29
KM-20L2 = test system: KM-20L2
Malme-3M = test system: Malme-3M
DMS-273 = test system: DMS-273
OVCAR-4 = test system: OVCAR-4
SF-539 = test system: SF-539
ACHN = test system: ACHN
SNB-19 = test system: SNB-19
A549 = test system: A549
UO-31 = test system: UO-31

Measured: GI50

CC1=C(C(=O)Nc2ccccc2)C(c2cc(Cl)cc(Cl)c2)C(C(=O)Nc2ccccc2)=C(C)N1
1.71 µM: HCT-15
inactive: SW-620 8.28 µM | NCI-H522 5.36 µM | MOLT-4 3.54 µM | SNB-78 17.1 µM | SNB-75 10.8 µM | COLO 205 17 µM | HL-60 1.78 µM | LXFL 529 3.77 µM | SK-MEL-28 14.2 µM | HCC 2998 11.6 µM | OVCAR-3 8.22 µM | LOX IMVI 4.79 µM | M14 12.4 µM | NCI-H226 15.1 µM | TK-10 16.7 µM | SR 2.72 µM | SN12C 10.8 µM | M19-MEL 10.4 µM | EKVX 17.4 µM | NCI-H23 5.37 µM | OVCAR-8 10.5 µM | UACC-257 12.3 µM | A498 22.6 µM | IGROV-1 16.1 µM | SK-MEL-2 12.1 µM | KM12 2.92 µM | HOP-18 12.5 µM | XF498 13.4 µM | SF-268 9.79 µM | U-251 3.33 µM | SK-MEL-5 13.8 µM | UACC-62 3.94 µM | RXF 631 18 µM | CCRF-CEM 3.02 µM | NCI-H460 18.6 µM | 786-0 9.04 µM | DMS-114 4.26 µM | RXF 393 12.9 µM | DLD-1 4.14 µM | SF-295 10.9 µM | OVCAR-5 19.4 µM | HCT-116 9.53 µM | CAKI-1 12.1 µM | SK-OV-3 36.8 µM | K562 1.35 µM | HOP-62 13.6 µM | RPMI-8226 3.84 µM | HT-29 4.65 µM | KM-20L2 9.06 µM | Malme-3M 14.4 µM | DMS-273 10.2 µM | OVCAR-4 2.43 µM | SF-539 14.8 µM | ACHN 8.15 µM | SNB-19 14.2 µM | A549 20.8 µM | UO-31 13.9 µM

From ChEMBL document CHEMBL1201862, “PubChem BioAssay data set” (2004)
